Source: patent publication US20150324546A1, “METHOD FOR PREDICTING DRUG-TARGET INTERACTIONS AND USES FOR DRUG REPOSITIONING” (GEORGETOWN UNIVERSITY, priority 2012, published 2015)
Like-named read-outs stand apart in the source and are kept apart here.

Legend:
angiogenesis = conditions: previously demonstrated; cited from earlier work
[1] = system: Human umbilical vein endothelial cells (HUVEC); assay: HUVEC angiogenesis (network formation on Matrigel) assay; format: cell-based; conditions: 24 h incubation, 1-100 μM, read-out: Inhibition of HUVEC network formation IC50
Method: Mebendazole was dissolved in 50 μl of DMSO and diluted with endothelial growth medium (EGM) to a final concentration of 1 mM. The highest concentration of DMSO is 0.1%. Human umbilical vein endothelial cells (HUVEC) were purchased from Cambrex Co. (East Rutherford, N.J., USA) and maintained in endothelial growth medium (EGM) supplemented with 2% FBS, 0.1% EGF, 0.1% hydrocortisone, 0.1% GA-1000, and 0.4% BBE. Morphogenesis assay on Matrigel was performed according to the manufacturer's instructions (Chemicon International). The ECMatrix™ kit consists of laminin, collagen type IV, heparan sulfate, proteoglycans, entactin, and nidogen. It also contains various growth factors (TGF-beta, FGF) and proteolytic enzymes (plasminogen, tPA, and MMPs) that are normally produced in EHS tumors. The incubation condition was optimized for maximal tube-formation as follows: 50 μl of EC Matrix™ was suitably diluted in a ratio 9:1 with 10× diluent buffer and used to coat the 96-well plate. The coated plates were incubated at 37° C. for 1 hr to allow the Matrix solution to solidify. HUVECs were cultured for 24 h in EGM with 2% FBS, trypsinized and re-suspended in the growth medium. […]
The efficiency of Mebendazole to inhibit the VEGFR2 kinase was measured by monitoring the ability of HUVECs to form networks.

VEGFR2 = VEGFR2 (Homo sapiens, UniProt P35968); conditions: read-out: VEGFR2 kinase activity IC50; 450 uM ATP, 60 minutes at room temperature, duplicate wells
Method: The VEGFR2 kinase assay was performed by using the Caliper LabChip 3000 and a 12-sipper LabChip. […] The off-chip incubation mobility-shift kinase assay uses a microfluidic chip to measure the conversion of a fluorescent peptide substrate to a phosphorylated product. The reaction mixture, from a microtiter well plate, is introduced through a capillary sipper onto the chip, where the nonphosphorylated substrate and phosphorylated product are separated by electrophoresis and detected via laser-induced fluorescence.
The assay reaction is: Fluorescein-peptide+ATP→fluorescein-phosphopeptide+ADP, which is measured by charge separation of phosphorylated product and unphosphorylated substrate. […] Following addition of ATP, samples were incubated for 60 minutes at room temperature and the reaction was terminated by the addition of stop buffer containing 100 mM HEPES (pH 7.5), 7 mM EDTA, 0.015% Brij-35, 4% DMSO. Phosphorylated product and unphosphorylated substrate were separated by charge using electrophoretic mobility shift. The product formed is compared to control wells to determine inhibition or enhancement of enzyme activity.
IC50 curves were generated using GraphPad 5 and a standard 4-parameter non-linear regression model (log [inhibitor] vs response−variable slope). Data points correspond to the averages of duplicate wells, and error bars represent the mean±replicate % activity.

[2] = system: MDA-MB-231 invasive breast cancer cell line; assay: Growth inhibition of MDA-MB-231 cells, MTS assay; format: cell-based; conditions: Homo sapiens, 48 hrs exposure
Method: MDA-MB-231 cells were seeded at 4000 cells/well in a 96 well plate. […] Three wells per concentration were treated 24 h post seeding, and the MTS assay was performed 48 h post treatment. The CellTiter96 Aqueous Non-Radioactive Cell Proliferation Assay kit (Promega) was used according to the manufacturer's recommendations. The absorbance values were measured at 490 nm and viable cells presented as a percentage of the absorbance of DMSO-only treated cells. IC50 and R^2 values were calculated with the Graphpad Prism software.

[3] = rats; cited from earlier work
[4] = humans; cited from earlier work

Chain of VEGFR2 (P35968 20-1356, species assumed): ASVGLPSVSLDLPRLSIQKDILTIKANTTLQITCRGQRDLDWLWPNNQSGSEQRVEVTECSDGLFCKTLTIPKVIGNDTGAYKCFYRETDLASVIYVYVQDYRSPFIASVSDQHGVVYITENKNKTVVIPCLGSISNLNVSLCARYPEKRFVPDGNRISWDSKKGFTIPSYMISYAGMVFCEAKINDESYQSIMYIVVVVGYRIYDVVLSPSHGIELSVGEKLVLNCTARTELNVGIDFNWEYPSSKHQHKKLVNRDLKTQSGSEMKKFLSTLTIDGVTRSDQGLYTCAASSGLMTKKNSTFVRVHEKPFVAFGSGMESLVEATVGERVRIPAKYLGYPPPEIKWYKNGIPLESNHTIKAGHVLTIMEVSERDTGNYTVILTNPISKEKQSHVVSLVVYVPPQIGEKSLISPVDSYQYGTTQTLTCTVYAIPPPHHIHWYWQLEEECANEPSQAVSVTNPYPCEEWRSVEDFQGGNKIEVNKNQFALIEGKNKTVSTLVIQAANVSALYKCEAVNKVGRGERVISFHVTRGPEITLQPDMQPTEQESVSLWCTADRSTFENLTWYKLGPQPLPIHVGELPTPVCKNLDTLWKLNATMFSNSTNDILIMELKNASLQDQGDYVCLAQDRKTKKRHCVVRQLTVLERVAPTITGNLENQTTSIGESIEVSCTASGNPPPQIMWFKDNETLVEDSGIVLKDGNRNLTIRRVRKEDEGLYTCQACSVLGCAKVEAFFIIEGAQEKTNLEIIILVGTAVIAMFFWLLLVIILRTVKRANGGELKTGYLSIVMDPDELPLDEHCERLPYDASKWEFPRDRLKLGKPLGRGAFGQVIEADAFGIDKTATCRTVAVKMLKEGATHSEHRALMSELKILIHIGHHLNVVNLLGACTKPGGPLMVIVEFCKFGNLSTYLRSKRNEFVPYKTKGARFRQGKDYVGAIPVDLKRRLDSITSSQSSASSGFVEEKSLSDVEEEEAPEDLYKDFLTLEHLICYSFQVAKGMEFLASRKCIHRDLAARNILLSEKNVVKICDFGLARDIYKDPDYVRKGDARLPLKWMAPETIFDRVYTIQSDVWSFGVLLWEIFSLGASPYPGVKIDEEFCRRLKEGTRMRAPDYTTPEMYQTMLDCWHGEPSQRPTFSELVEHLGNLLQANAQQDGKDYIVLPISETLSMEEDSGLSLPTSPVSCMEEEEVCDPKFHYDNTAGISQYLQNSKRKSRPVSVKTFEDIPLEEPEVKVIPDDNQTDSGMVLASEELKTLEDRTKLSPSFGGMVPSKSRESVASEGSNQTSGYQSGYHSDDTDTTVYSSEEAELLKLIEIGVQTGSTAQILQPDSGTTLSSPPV

For `CCCSc1ccc2nc(NC(=O)OC)[nH]c2c1` [Albendazole], the Inhibition of angiogenesis (angiogenesis) is listed as “inhibit angiogenesis”.

For `COC(=O)Nc1nc2ccc(C(=O)c3ccccc3)cc2[nH]1` [Mebendazole], the IC50 [1] was 8.8 µM and the IC50 (VEGFR2) was 3.6 µM.

In the case of `Cc1ccc(-c2cc(C(F)(F)F)nn2-c2ccc(S(N)(=O)=O)cc2)cc1` [celecoxib], the IC50 [2] is given as 40 µM, the Circulating levels [3] is given as 1 to 10 µM and the Circulating levels [4] is given as 1 to 10 µM.

Compound `Cc1ccc(C)c(-c2cc(C(F)(F)F)nn2-c2ccc(S(N)(=O)=O)cc2)c1` [dimethyl celecoxib] has an IC50 [2] of 36 µM.
